Literature values in patent US9014457B2, “Quantifying cell death” (UCL Business PLC, priority 2009, dated 2015).

Tested on: astrocyte cultures (NADPH oxidase)
Details: cited from earlier work

Row | Compound | PMA-induced lucigenin response
1 | c1ccc2c(c1)[I+]c1ccccc1-2 [DPI] | blocked
2 | superoxide dismutase | reversed
